Measured values: patent US20190315711A1 (eXIthera Pharmaceuticals, Inc., priority 2016, published 2019)
≈ marks a conversion by molar mass, not a printed value.

Tests used:
[1] = target: human Factor XIa (Homo sapiens, UniProt P03951); test: Factor XIa enzyme inhibition assay (dose response, fluorogenic AMC substrate); format: biochemical; parameters: Enzyme: Factor XIa; details: purified enzyme; substrate 50 μM, enzyme 0.25 nM; read-out: hFXIa IC50
How it was run: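 Fluorogenic assay in 20 mM Hepes pH 7.4, 150 mM NaCl, 0.02% Tween 20 with 0.25 nM enzyme and 50 μM Glp-Pro-Arg-AMC (final). Fluorescence read every minute for 30 min at 30 °C after serial two-fold compound dilution; IC50 from four-parameter Hill fit of dose-response curves.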

[2] = Plasma protein binding by equilibrium dialysis; format: in vitro ADME; details: both sexes, pooled plasma, pH 7.4, human plasma protein binding, read-out: PPB
Description: The following procedure was used to determine the plasma protein binding of a test compound in pooled plasma from human (mixed gender) via equilibrium dialysis in a 96-well plate format. The dialysate compartment was loaded with phosphate-buffered saline (pH 7.4) and the sample side was loaded with plasma spiked with the test compound at a concentration of 10 μM. After loading, samples were covered and incubated for 4 hours at 37° C. After incubation, each compartment was sampled, diluted with acetonitrile/buffer and centrifuged. The supernatants were analyzed by HPLC-MS/MS. The analyte peak areas obtained from HPLC-MS/MS analysis of each sample were used to calculate protein binding according to the following equation (Equation 4):
where: AREAp=Peak area of analyte in protein matrix; AREAb=Peak area of analyte in buffer. The amount measured in the plasma compartment included both free and bound drug, while that on the buffer side represented free drug only; the differences were used to calculate the percentage plasma protein bound. Three reference compounds were tested in each assay: acebutolol, quinidine and warfarin.

[3] = Aqueous solubility in PBS pH 7.4; format: physicochemical; details: phosphate buffered saline, aqueous buffer, kinetic from dmso stock, PBS pH 7.4, room temperature
Description: The following procedure was used to determine the aqueous solubility of a test compound in phosphate buffered saline (PBS—NaCl 137 mM, KCl 2.7 mM, Na2HPO4 8.1 mM, KH2PO4 1.5 mM, pH 7.4) in 96-well plate format by HPLC-UV/VIS analysis. The test compound was prepared at 200 μM in PBS from a 10 mM DMSO stock solution. The final DMSO concentration was 2%. The PBS buffer samples were mixed thoroughly followed by incubation at room temperature for 24 h. At the end of the incubation, the PBS buffer samples were centrifuged and supernatants analyzed by HPLC. The aqueous solubility (μM) of the test compound in PBS was determined by comparing the peak area of the principal peak in the calibration standard (200 μM) with the peak area of the corresponding peak in each of the PBS samples. The range of the assay was approximately 0.5 μM to 200 μM. The reference compounds used in each assay were metoprolol, rifampicin, ketoconazole, phenytoin, haloperidol, simvastatin, diethylstilbestrol, and tamoxifen ranking from fully soluble (200 μM) to poorly soluble (<1 μM).

[4] = Caco-2 cell permeability assay (A-B and B-A); format: in vitro ADME; details: human; for Papp A→B at 60 min, 10 μM: A-B direction; for Papp B→A at 40 min, 10 μM: B-A direction
Description: The following procedure was used to determine the ability of a test compound to cross Caco-2 cells (human intestinal epithelial cells derived from a colorectal adenocarcinoma). The cells were seeded at 1×10^5 cells/cm^2 in 96-well Multiscreen™ plates (Millipore). Permeability assays were performed with the cells at days 21-25 post-seeding. Cells are typically used for 15 consecutive passages in culture.
This assay can be performed in either the apical to basolateral (A−B) or basolateral to apical (B−A) direction. The test compound was prepared at 10 μM in HBSS-MES (pH 6.5) or HBSS-HEPES (pH 7.4) with a final DMSO concentration of 1%. The working solution was then centrifuged and the supernatant added to the donor side. The assay plate was incubated at 37° C. with gentle shaking for 60 min or 40 min for the A−B or B−A assay, respectively. Samples were aliquoted from the donor side at time zero and the end point, and from the receiver side at the end point.
Reference compounds, propranolol (highly permeable), labetalol (moderately permeable), ranitidine (poorly permeable), and colchicine (P-glycoprotein substrate) were included in each assay.
Samples are analyzed by HPLC-MS/MS using selected reaction monitoring. The HPLC system consists of a binary LC pump with autosampler, a C-18 column, and a gradient.
The apparent permeability coefficient (Papp) of the test compound (Equation 2) and its recovery (Equation 3) are calculated as follows: […]
wherein A is the surface area of the cell monolayer (0.11 cm^2), C is concentration of the test compound expressed as peak area, D denotes donor, and R is receiver. “0”, “mid,” and “end” denote time at zero, mid-point, and end of the incubation, respectively. At is the incubation time. V is the volume of the donor or receiver.
This is most likely due to non-specific binding or degradation.

[5] = target: T1, Factor Xa (Homo sapiens, UniProt P00742); test: Dose response assay for protease inhibitors: Factor Xa; format: biochemical; details: ratio versus Factor XIa
T1 construct: Factor Xa; 0.2 μM in 50% glycerol (9.2 μg/mL)
Description: (§1) • Assay buffer: 20 mM Hepes, pH 7.4; 150 mM NaCl; 0.02% Tween 20 • Compounds: 10 mM stocks in DMSO • Substrate: 20 mM Glp-Pro-Arg-AMC, 25 mg/2.3 mL H2O (store at +4° C.) [Factor XIa, thrombin, and trypsin] • 20 mM Pro-Phe-Arg-AMC (Bachem I-1295), 25 mg/2.2 mL H2O or Boc-Leu-Gly-Arg-AMC (Bachem I-1105), 25 mg/2.07 mL H2O (store at +4° C.) [Factor Xa] • Enzyme: Factor XIa; 0.25 M in 50% glycerol (20 μg/mL) • Trypsin; 0.2 μM in 50% glycerol (4.8 μg/mL) • Thrombin; 0.2 μM in 50% glycerol (7.34 μg/mL) • Factor Xa; 0.2 μM in 50% glycerol (9.2 μg/mL)
(§2) • 1. Dilute the substrate to 100 μM in assay buffer (30 μL/6 mL). The enzyme is diluted to 0.5 nM just prior to use (12 L/6 mL for Factor XIa; 15 μL/6 mL for all of the rest.) • 2. Pipette 50 μL of substrate into each well of the 96 well (12×8) microtiter plate. (Column 1 is used as the 100% activity control and receives no compound, and Column 12 is the blank and receives no enzyme.) Add an additional 46 μL to column 2. • 3. Pipette 4 μL of each compound into the appropriate well in column 2 of the plate (unknowns assayed in triplicate, standard assayed in duplicate). The final compound concentration will be 1/50th of the stock. • 4. Serially two-fold dilute the compound by mixing the sample in column 2, removing 50 μL to the next well (column 3), mix and remove to column 4, etc. until column 11. After mixing column 11, remove 50 μL and discard. • 5. Pipette 50 μL of buffer into column 12. Initiate the reaction by adding 50 μL of enzyme solution to each well of columns 1-11 as rapidly as possible. • 6. Read the plate in a spectrophotometer (SpectraMax) at 30° C., wherein each well is measured every 60 s for 30 min. For Factor Xa assays, each well is measured every 1 min for a total of 60 min. • 7. For Factor XIa assays, the compounds are assayed, in duplicate, at 3 different starting concentrations, 20, 2, and 0.2 μM; 1:10, 1:100, and 1:1000 dilution of 10 mM stock or at 2, 0.2, and 0.02 μM; 1:100, 1:1000, and 1:10,000 dilution of 10 mM stock. Data for each concentration are combined for graphing and data fitting. • 8. Data can be used both for estimation of IC50 and for estimation of Kon.

[6] = target: T2, Thrombin (Homo sapiens, UniProt P00734); test: Dose response assay for protease inhibitors: thrombin; format: biochemical; details: ratio versus Factor XIa
T2 construct: Thrombin; 0.2 μM in 50% glycerol (7.34 μg/mL)
Description: as §1, §2

[7] = target: T3, Trypsin (Bos taurus, UniProt P00760); test: Dose response assay for protease inhibitors: trypsin; format: biochemical; details: ratio versus Factor XIa
T3 construct: gene PRSS1
T3 sequence (P00760 24-246): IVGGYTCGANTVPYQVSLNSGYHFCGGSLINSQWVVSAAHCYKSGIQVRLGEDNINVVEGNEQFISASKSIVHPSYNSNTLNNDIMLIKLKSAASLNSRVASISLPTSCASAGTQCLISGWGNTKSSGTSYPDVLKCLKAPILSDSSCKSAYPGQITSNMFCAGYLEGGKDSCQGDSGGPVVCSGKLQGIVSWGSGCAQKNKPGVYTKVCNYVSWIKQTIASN
Description: as §1, §2

Sequence of human Factor XIa (P03951 388-625 limits assumed): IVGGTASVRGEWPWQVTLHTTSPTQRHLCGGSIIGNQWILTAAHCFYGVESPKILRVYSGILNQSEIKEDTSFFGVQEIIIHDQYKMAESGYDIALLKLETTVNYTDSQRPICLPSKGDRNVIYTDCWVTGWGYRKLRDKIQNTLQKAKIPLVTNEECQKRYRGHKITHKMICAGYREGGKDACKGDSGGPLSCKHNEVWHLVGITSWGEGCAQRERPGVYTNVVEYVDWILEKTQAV
Sequence of human Factor XIa (P03951 19-387 partner limits assumed): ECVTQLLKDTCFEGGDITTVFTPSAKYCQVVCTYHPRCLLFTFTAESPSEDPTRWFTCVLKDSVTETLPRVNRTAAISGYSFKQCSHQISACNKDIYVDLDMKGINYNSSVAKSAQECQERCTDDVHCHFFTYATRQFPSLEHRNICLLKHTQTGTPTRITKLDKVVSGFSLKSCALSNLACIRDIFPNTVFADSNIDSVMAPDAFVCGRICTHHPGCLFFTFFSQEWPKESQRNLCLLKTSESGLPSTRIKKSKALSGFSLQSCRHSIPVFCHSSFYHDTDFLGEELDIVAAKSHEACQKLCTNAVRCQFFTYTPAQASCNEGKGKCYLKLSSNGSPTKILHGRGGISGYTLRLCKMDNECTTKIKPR
T1 sequence (P00742 235-488 limits assumed): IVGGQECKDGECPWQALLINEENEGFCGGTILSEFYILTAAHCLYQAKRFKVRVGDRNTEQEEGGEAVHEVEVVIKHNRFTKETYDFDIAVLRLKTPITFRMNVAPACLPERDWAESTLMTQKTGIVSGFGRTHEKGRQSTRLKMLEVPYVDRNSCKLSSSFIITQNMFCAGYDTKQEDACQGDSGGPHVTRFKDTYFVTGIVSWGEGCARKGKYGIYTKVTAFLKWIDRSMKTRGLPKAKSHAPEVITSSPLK
T1 sequence (P00742 41-179 partner limits assumed): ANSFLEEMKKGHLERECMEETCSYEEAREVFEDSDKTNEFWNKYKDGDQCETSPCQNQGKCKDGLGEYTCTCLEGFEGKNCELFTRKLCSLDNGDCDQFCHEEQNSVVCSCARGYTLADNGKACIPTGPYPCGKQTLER

SMILES | IC50 [1] [nM] | fraction unbound at 4 h, 10 μM [2] | solubility at 24 h [3] [µM] | Papp A→B at 60 min, 10 μM [4] [×10⁻⁶ cm/s] | Papp B→A at 40 min, 10 μM [4] [×10⁻⁶ cm/s] | FXa/FXIa (selectivity ratio) [5] | Ratio: Thrombin/FXIa [6] | Ratio: Trypsin/FXIa [7]
CN(C(=O)[C@@H]1[C@@H](Cc2ccnc(N)c2)C(=O)N1C(=O)N[C@@H](C1CCCCC1)C(F)(F)F)c1cc(Cl)cc(Cl)c1 [Compound 23] | 10 to 100 | < 0.05 | ≤ 10 | ≤ 10 | ≤ 10 |  |  | 
CC[C@@H](NC(=O)N1C(=O)[C@H](Cc2ccnc(N)c2)[C@H]1C(=O)N(C)c1cccc(OC)c1)C1CCCCC1 [Compound 28] | < 10 |  |  | 11 to 30 | ≤ 10 | H (“H” indicates 101-1000) | G (“G” indicates 1-100) | G (“G” indicates 1-100)
CN(C(=O)[C@@H]1[C@@H](Cc2ccnc(N)c2)C(=O)N1C(=O)N[C@@H](C1CCCCC1)C(F)(F)F)c1cccc(Cl)c1 [Example 11] |  | < 0.05 | 10 to 100 (≈ 5.52 to 55.2 µg/mL) | ≤ 10 | ≤ 10 |  |  | 
